Source: patent publication US10052306B2 (LUC THERAPEUTICS, INC., priority 2013, dated 2018)
pIC50: −log10 of the molar value.

Experiments:
[1] = target: NR1/NR2B (Homo sapiens (Human), UniProt Q05586+Q13224); test: Cell assay: FDSS Ca2+ influx inhibition in HEK293 cells expressing NR1/NR2B; settings: Binned Activity, HEK293 cells expressing NR1/NR2B, Ca2+ influx; binned NR2B NAM IC50;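 note: Fluo-8 Ca2+ signal read on Hamamatsu FDSS 6000 after glutamate, glycine and Ca2+ challenge following 10 min compound preincubation, end/baseline fluorescence ratio compared with MK801 control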
Chain of NR1/NR2B (Homo sapiens (Human), UniProt Q05586+Q13224) (Q13224 27-1484, other chains not shown): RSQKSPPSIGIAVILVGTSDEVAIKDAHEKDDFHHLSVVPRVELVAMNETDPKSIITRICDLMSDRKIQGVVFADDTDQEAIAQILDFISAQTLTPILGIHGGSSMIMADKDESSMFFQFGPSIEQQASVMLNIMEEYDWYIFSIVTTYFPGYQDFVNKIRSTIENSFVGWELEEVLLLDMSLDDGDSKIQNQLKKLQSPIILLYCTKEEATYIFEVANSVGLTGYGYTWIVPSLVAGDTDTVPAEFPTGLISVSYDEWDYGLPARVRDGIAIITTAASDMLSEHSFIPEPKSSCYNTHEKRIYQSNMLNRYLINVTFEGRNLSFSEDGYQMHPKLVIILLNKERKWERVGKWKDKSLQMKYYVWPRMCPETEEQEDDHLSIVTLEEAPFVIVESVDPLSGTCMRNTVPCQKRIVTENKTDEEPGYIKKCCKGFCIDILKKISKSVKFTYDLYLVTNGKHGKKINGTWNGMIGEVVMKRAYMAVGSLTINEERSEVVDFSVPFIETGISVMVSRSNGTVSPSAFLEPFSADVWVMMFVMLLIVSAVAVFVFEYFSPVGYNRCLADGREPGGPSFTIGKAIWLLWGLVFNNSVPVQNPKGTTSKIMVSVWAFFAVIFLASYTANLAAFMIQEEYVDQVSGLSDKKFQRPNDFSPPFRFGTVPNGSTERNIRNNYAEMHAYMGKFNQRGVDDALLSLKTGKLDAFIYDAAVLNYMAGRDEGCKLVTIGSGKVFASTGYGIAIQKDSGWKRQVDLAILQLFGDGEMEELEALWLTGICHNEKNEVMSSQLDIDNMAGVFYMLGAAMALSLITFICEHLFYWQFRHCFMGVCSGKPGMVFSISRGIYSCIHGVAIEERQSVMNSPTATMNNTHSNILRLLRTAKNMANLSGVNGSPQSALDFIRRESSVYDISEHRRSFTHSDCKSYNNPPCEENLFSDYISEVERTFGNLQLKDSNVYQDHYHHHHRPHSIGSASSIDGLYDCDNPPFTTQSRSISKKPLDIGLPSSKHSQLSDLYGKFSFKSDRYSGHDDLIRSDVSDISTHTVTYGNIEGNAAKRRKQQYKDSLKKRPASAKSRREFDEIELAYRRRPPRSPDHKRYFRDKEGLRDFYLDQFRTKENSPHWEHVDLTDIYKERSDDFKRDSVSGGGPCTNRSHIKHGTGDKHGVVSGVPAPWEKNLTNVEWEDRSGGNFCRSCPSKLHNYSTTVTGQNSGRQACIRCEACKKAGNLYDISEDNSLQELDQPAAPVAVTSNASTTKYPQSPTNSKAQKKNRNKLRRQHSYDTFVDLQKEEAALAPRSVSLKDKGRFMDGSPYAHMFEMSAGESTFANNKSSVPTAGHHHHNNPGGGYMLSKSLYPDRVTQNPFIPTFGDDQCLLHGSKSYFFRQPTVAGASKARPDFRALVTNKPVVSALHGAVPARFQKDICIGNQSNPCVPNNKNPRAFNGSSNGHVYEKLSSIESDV

[2] = target: NR1/NR2B (Homo sapiens (Human), UniProt Q13224); test: as above; settings: read-out: NR2B NAM IC50; HEK293 cells expressing NR1/NR2B, Ca2+ influx
Chain of NR1/NR2B (Homo sapiens (Human), UniProt Q13224) (Q13224 27-1484, other chains not shown): as above

Structure (SMILES)	pIC50 [1]	pIC50 [2]
O=C(Nc1ccccc1)N1C[C@H]2C[C@@H](c3ccccc3)C[C@H]2C1 [Example 102, N,5-diphenyl-octahydrocyclopenta[c] pyrrole-2-carboxamide]	< 5.00	5.00
COc1cccc(NC(=O)N2C[C@H]3C[C@@H](c4ccccc4)C[C@H]3C2)c1 [Example 104, N-(3-methoxyphenyl)-5-phenyl-octahydrocyclopenta[c] pyrrole-2-carboxamide]	< 5.00	5.00
O=C(Nc1cccc(Cl)c1)N1C[C@H]2C[C@@H](c3ccccc3)C[C@H]2C1 [Example 106, N-(3-chlorophenyl)-5-phenyl-octahydrocyclopenta[c] pyrrole-2-carboxamide]	< 5.00	5.00
Cc1ccc(NC(=O)N2C[C@H]3C[C@@H](c4ccccc4)C[C@H]3C2)c(C)c1 [Example 110, N-(2,4-dimethylphenyl)-5-phenyl-octahydrocyclopenta[c] pyrrole-2-carboxamide]	< 5.00	5.00
O=C(Nc1cccnc1)N1C[C@H]2C[C@@H](c3ccccc3)C[C@H]2C1 [Example 111, 5-phenyl-N-(pyridin-3-yl)-octahydrocyclopenta[c] pyrrole-2-carboxamide]	< 5.00	5.00
O=C(CN1C[C@H]2C[C@@H](c3ccccc3)C[C@H]2C1)c1ccc(O)cc1 [Example 114, 1-(4-hydroxyphenyl)-2-(5-phenylhexahydrocyclo-penta[c]pyrrol-2(1H)-yl)ethanone]	6.00 to 7.00	6.63
O=C(Nc1cccc(Cl)c1)N1C[C@@H]2C[C@@](O)(Cc3ccccc3)C[C@@H]2C1 [Example 118, (3aR,5r,6aS)-5-benzyl-N-(3-chlorophenyl)-5-hydroxyhexahydrocyclo-penta[c]pyrrole-2(1H)-carboxamide]	< 5.00	5.00
COc1cccc(NC(=O)N2C[C@@H]3C[C@@](O)(Cc4ccccc4)C[C@@H]3C2)c1 [Example 119, (3aR,5r,6aS)-5-benzyl-5-hydroxy-N-(3-methoxy-phenyl)hexahydro-cyclopenta[c]pyrrole-2(1H)-carboxamide]	< 5.00	5.00
O=C(Nc1ccc(Cl)c(C(F)(F)F)c1)N1C[C@@H]2C[C@@](O)(Cc3ccccc3)C[C@@H]2C1 [Example 120, (3aR,5r,6aS)-5-benzyl-N-(4-chloro-3-(trifluoromethyl)phenyl)-5-hydroxyhexahydrocyclo-penta[c]pyrrole-2(1H)-carboxamide]	< 5.00	5.00
Cc1ccc(NC(=O)N2C[C@@H]3C[C@@](O)(Cc4ccccc4)C[C@@H]3C2)c(C)c1 [Example 121, (3aR,5r,6aS)-5-benzyl-N-(2,4-dimethylphenyl)-5-hydroxyhexahydrocyclo-penta[c]pyrrole-2(1H)-carboxamide]	< 5.00	5.00
O=C(Nc1ccccc1)N1C[C@@H]2C[C@@](O)(Cc3ccccc3)C[C@@H]2C1 [Example 122, (3aR,5r,6aS)-5-benzyl-5-hydroxy-N-phenylhexahydrocyclo-penta[c]pyrrole-2(1H)-carboxamide]	< 5.00	5.00
Cc1ccc(NC(=O)N2C[C@@H]3C[C@@](O)(Cc4ccccc4)C[C@@H]3C2)cc1 [Example 125, (3aR,5r,6aS)-5-benzyl-5-hydroxy-N-(p-tolyl) hexahydrocyclopenta [c]pyrrole-2(1H)-carboxamide]	< 5.00	5.00
COc1ccc(NC(=O)N2C[C@@H]3C[C@@](O)(Cc4ccccc4)C[C@@H]3C2)cc1 [Example 126, (3aR,5r,6aS)-5-benzyl-5-hydroxy-N-(4-methoxy-phenyl)hexahydro-cyclopenta[c]pyrrole-2(1H)-carboxamide]	< 5.00	5.00
O=C(Nc1ccccc1C(F)(F)F)N1C[C@@H]2C[C@@](O)(Cc3ccccc3)C[C@@H]2C1 [Example 127, (3aR,5r,6aS)-5-benzyl-5-hydroxy-N-(2-(trifluoromethyl)phenyl) hexahydrocyclopenta[c] pyrrole-2(1H)-carboxamide]	< 5.00	5.00
COc1ccccc1NC(=O)N1C[C@@H]2C[C@@](O)(Cc3ccccc3)C[C@@H]2C1 [Example 128, (3aR,5r,6aS)-5-benzyl-5-hydroxy-N-(2-meth-oxyphenyl)hexahydro-cyclopenta[c]pyrrole-2(1H)-carboxamide]	< 5.00	5.00
Cc1cccc(NC(=O)N2C[C@@H]3C[C@@](O)(Cc4ccccc4)C[C@@H]3C2)c1 [Example 129, (3aR,5r,6aS)-5-benzyl-5-hydroxy-N-(m-tolyl)hexahydrocyclo-penta[c]pyrrole-2(1H)-carboxamide]	< 5.00	5.00
COc1ccc(C(=O)CN2C[C@@H]3C[C@@](O)(Cc4ccccc4)C[C@@H]3C2)cc1 [Example 132, 2-((3aR,5r,6aS)-5-benzyl-5-hydroxyhexahydrocyclo-penta[c]pyrrol-2(1H)-yl)-1-(4-methoxyphenyl)ethanone]	< 5.00	5.00
O=C(CCN1C[C@@H]2C[C@@](O)(Cc3ccccc3)C[C@@H]2C1)c1ccc(O)cc1 [Example 133, 3-((3aR,5r,6S)-5-benzyl-5-hydroxyhexahydrocyclo-penta[c]pyrrol-2(1H)-yl)-1-(4-hydroxyphenyl)propan-1-one]	5.00 to 6.00	5.15
O=C(CN1C[C@@H]2C[C@@](O)(Cc3ccc(F)cc3)C[C@@H]2C1)c1ccc(O)cc1 [Example 134, 2-((3aR,5r,6aS)-5-(4-fluorobenzyl)-5-hydroxyhexahydrocyclo-penta[c]pyrrol-2(1H)-yl)-1-(4-hydroxyphenyl)ethanone]	> 7.00	7.36
Oc1ccc([C@@H](O)CN2C[C@@H]3C[C@@](O)(Cc4ccccc4)C[C@@H]3C2)cc1 [Example 136, (3aR,5R,6aS)-5-benzyl-2-((R)-2-hydroxy-2-(4-hydroxyphenyl)ethyl)octa-hydrocyclopenta[c]pyrrol-5-ol]	> 7.00	7.63

Now from value to compound:

pIC50 [1]	pIC50 [2]	Structure (SMILES)
< 5.00	5.00	O=C(Nc1ccc(O)cc1)N1C[C@H]2C[C@@H](c3ccccc3)C[C@H]2C1 [Example 100, N-(4-hydroxyphenyl)-5-phenyl-octahydrocyclopenta[c] pyrrole-2-carboxamide]
< 5.00	5.00	O=C(Nc1ccc(F)cc1)N1C[C@H]2C[C@@H](c3ccccc3)C[C@H]2C1 [Example 101, N-(4-fluorophenyl)-5-phenyl-octahydrocylcopenta[c] pyrrole-2-carboxamide]
< 5.00	5.00	COC(=O)c1ccc(NC(=O)N2C[C@H]3C[C@@H](c4ccccc4)C[C@H]3C2)cc1 [Example 103, methyl 4-[({5-phenyl-octahydrocyclopenta[c]pyrrol-2-yl}carbonyl)amino]benzo-ate]
< 5.00	5.00	O=C(Nc1cccc(C(F)(F)F)c1)N1C[C@H]2C[C@@H](c3ccccc3)C[C@H]2C1 [Example 105, 5-phenyl-N-[3-(trifluoromethyl)phenyl]-octahydrocyclopenta[c] pyrrole-2-carboxamide]
< 5.00	5.00	N#Cc1cccc(NC(=O)N2C[C@H]3C[C@@H](c4ccccc4)C[C@H]3C2)c1 [Example 107, N-(3-cyanophenyl)-5-phenyl-octahydrocyclopenta[c] pyrrole-2-carboxamide]
< 5.00	5.00	O=C(Nc1ccc(Cl)c(C(F)(F)F)c1)N1C[C@H]2C[C@@H](c3ccccc3)C[C@H]2C1 [Example 108, N-[4-chloro-3-(trifluoromethyl)phenyl]-5-phenyl-octahydrocyclopenta[c] pyrrole-2-carboxamide]
< 5.00	5.00	COc1ccc(C)cc1NC(=O)N1C[C@H]2C[C@@H](c3ccccc3)C[C@H]2C1 [Example 109, N-(2-methoxy-5-methylphenyl)-5-phenyl-octahydrocyclopenta[c] pyrrole-2-carboxamide]
< 5.00	5.00	COc1ccccc1CNC(=O)N1C[C@H]2C[C@@H](c3ccccc3)C[C@H]2C1 [Example 112, N-[(2-methoxyphenyl)methyl]-5-phenyl-octahydrocyclopenta[c] pyrrole-2-carboxamide]
< 5.00	5.00	C[C@@H](NC(=O)N1C[C@H]2C[C@@H](c3ccccc3)C[C@H]2C1)c1ccc(Cl)cc1 [Example 113, N-[(1R)-1-(4-chlorophenyl)ethyl]-5-phenyl-octahydrocyclopenta[c] pyrrole-2-carboxamide]
< 5.00	5.00	Oc1ccc(C(O)CN2C[C@H]3C[C@@H](c4ccccc4)C[C@H]3C2)cc1 (stereo partly shown) [Example 115, 4-(1-hydroxy-2-(5-phenylhexahydrocyclo-penta[c]pyrrol-2(1H)-yl)ethyl)phenol]
< 5.00	5.00	COc1ccc(C)cc1NC(=O)N1C[C@@H]2C[C@@](O)(Cc3ccccc3)C[C@@H]2C1 [Example 124, (3aR,5r,6aS)-5-benzyl-5-hydroxy-N-(2-methoxy-5-methylphenyl)hexahydro-cyclopenta[c]pyrrole-2(1H)-carboxamide]
> 7.00	7.36	O=C(CN1C[C@@H]2C[C@@](O)(Cc3ccccc3)C[C@@H]2C1)c1ccc(O)cc1 [Example 130, 2-((3aR,5r,6aS)-5-benzyl-5-hydroxyhexahydrocyclo-penta[c]pyrrol-2(1H)-yl)-1-(4-hydroxyphenyl)ethanone]
